Assay results published in patent US11819578B2, “Nanofiber scaffolds” (Trustees of Boston University, priority 2021, dated 2023).

Legend:
[1] = Release of small molecule cargo loaded in the PCL fibers; type: physicochemical
Experimental: FIG. 21 depicts FITC (50-500 ng) released from the fibers over the course of 90 days. FITC was loaded in the mixture of the PCL solution similar to grazoprevir loaded meshes. (n=4)
Doxorubicin was loaded in the mixture of the PCL solution similar to grazoprevir loaded meshes. (n=3)
When used with primary CD8+ HER2-targeted NS3 CAR T cells with the same grazoprevir-dependent CARs, the […] were excited (CD69 expression) when co-cultured with the meshes and HER2-expression NALM6 cells (FIG. 19).
The meshes ability to release doxorubicin over time was characterized as a functional delivery method for chemotherapeutic drugs.

[2] = cited from earlier work

Row | Structure (SMILES) | period of release from the fibers ([1]; FITC 50-500 ng loaded in the PCL solution, n=4) [days] | log P [2] | period of release from the fibers ([1]; 500 ug doxorubicin loaded in the PCL solution, n=3) [days] | release over time in vitro ([1]; in vitro, in words)
1 | O=C1OC2(c3ccc(O)cc3Oc3cc(O)ccc32)c2ccc(N=C=S)cc21 [FITC] | 90 | 4.8 | – | –
2 | COc1cccc2c1C(=O)c1c(O)c3c(c(O)c1C2=O)C[C@@](O)(C(=O)CO)C[C@@H]3O[C@H]1C[C@H](N)[C@H](O)[C@H](C)O1 [doxorubicin] | – | – | 28 | several weeks to months
3 | C=C[C@@H]1C[C@]1(NC(=O)[C@@H]1C[C@@H]2CN1C(=O)[C@H](C(C)(C)C)NC(=O)O[C@@H]1C[C@H]1CCCCCc1nc3ccc(OC)cc3nc1O2)C(=O)NS(=O)(=O)C1CC1.O [grazoprevir] | – | 4.7 | – | –
